Laboratory results published in patent US10035792B2, “Resorcinol derivative as HSP90 inhibitor” (priority 2015, dated 2018).

Experiments:
HSP90α = HSP90α (Homo sapiens (Human), UniProt P07900); assay: Fluorescence polarization (FP) HSP90-alpha target binding assay; conditions: fluorescence polarization; read-out: Target binding ability HSP90α FP IC50
Description: In the present invention, the method of fluorescence polarization (FP) was used to establish the screening platform for HSP90-alpha inhibitors. The principle based on is to calculate fluorescence polarization values in horizontal and vertical directions by detecting molecular weight changes before and after interaction of fluorescent labeled small molecules with other molecules, in use for correlation analysis. If binding equilibria between the fluorescent labeled small molecule and the macromolecule is established, it moves slowly when excited, and the fluorescence polarization values measured will increase. If the fluorescent labeled small molecule binding to the macromolecule is replaced with other ligands, its rotational or inversional speed in free state will become faster, the emitted light would be depolarized with respect to the exciting light plane, and thus the polarized light value measured will decrease, so as to calculate the polarization value of the sample (the unit of polarization value is mP).
The fluorescent labeled small molecule used in the present invention was VER-00051001 (synthesized by reference to the synthetic method described in JMC, 2008, 51, 196-218). The reaction was carried out in a 384-well black plate, using the reaction hydrophobic protein HFB buffer: 100 mM Tris.Cl pH 7.4, 20 mM KCl, 6 mM MgCl2, 5 μg/mL BSA, 25 nM full-length Hsp90U, 10 nM VER-51001. The volume of the reaction system was […], containing 5 nM GM-BODIPY (geldanamycin), 30 nM HSP90 and the test small molecular compound or DMSO (dimethyl sulfoxide), wherein the DMSO content was 2% o. Additional two group wells were established, wherein the wells only added with HFB buffer were used as blank controls, and the wells further added with 5 nM GM-BODIPY were used as negative controls. The reaction was carried out at 4° C. for 12-16 hours. The mP value was measured by Biotek microplate reader at 485 nm of excitation wavelength and 535 nm of emission wavelength. The inhibition rate was calculated using the following equation: (Compound-free mP−Compound mP)/(Compound-free mP−negative control mP)×100%

[1] = test system: human lung cancer cell line A549; assay: Tumor cell growth inhibition, SRB staining, A549; format: cell-based; conditions: A549, 72 h
Protocol: The growth inhibition assay of tumor cells was detected by sulforhodamine B (SRB) staining method. The specific steps were as follows: inoculating human colon cancer cell line HCT116 and human lung cancer cell line A549 (purchased from American Type Culture Collection, ATCC) at the logarithmic growth phase into a 96-well micro culture plate at an appropriate concentration of 4000 cells/well, 100 μL for each well; after culturing overnight, adding with the compound at different concentrations (100, 10, 1, 0.1, 0.01 μM) to react for 72 h, wherein triplicate wells were set up for each concentration, and solvent control wells with the corresponding concentration and zero wells without cells were also set up. After the completion of the reaction, the culture medium was removed from the adherent cells, the later was added with 10% (w/v) trichloroacetic acid (100 μL/well) at 4° C. to fix for 1 h, and then washed five times with distilled water. After drying at room temperature, 100 μL of SRB solution (4 mg/mL, dissolved in 1% glacial acetic acid) was added into each well, followed by incubation and staining for 15 min at room temperature. The uncombined SRB was removed by washing five times with 1% glacial acetic acid. After drying at room temperature, 100 μL of 10 mM Tris solution was added into each well, and the optical density (OD) at 515 nm was measured by a […] microplate reader. The inhibition rate of the drug to tumor cell growth was calculated according to the following equation: Inhibition rate (%)=(OD of control well-OD of drug well)/OD of control well×100%. The experiment was repeated twice.

| Compound | IC50 (HSP90α) [nM] | EC50 [1] [nM] |
| --- | --- | --- |
| CCNC(=O)c1onc(-c2cc(C(C)C)c(O)cc2O)c1-c1ccc2c(c1)CCNCC2 [Example 28, 3-(2,4-dihydroxyl-5-isopropylphenyl)-N-ethyl-4-(2,3,4,5-tetrahydro-1H-3-benzazepin-7-yl) isoxazole-5-carboxamide] | < 20 | < 20 |
| CCNC(=O)c1onc(-c2cc(C(C)C)c(O)cc2O)c1-c1ccc2cnccc2c1 [Example 29, 3-(2,4-dihydroxyl-5-isopropylphenyl)-N-ethyl-4-(isoquinolin-6-yl)isoxazole-5-carboxamide] | < 20 | 20 to 100 |
| CCNC(=O)c1noc(-c2cc(Br)c(O)cc2O)c1-c1ccc2c(c1)CCN(C)C2 [Example 30, 5-(2,4-dihydroxyl-5-bromo-phenyl)-N-ethyl-4-(2-methyl-1,2,3,4-tetrahydroisoquinolin-6-yl)isoxazole-3-carboxamide] | 20 to 100 | > 100 |
| CCNC(=O)c1noc(-c2cc(Cl)c(O)cc2O)c1-c1ccc2c(c1)CCN(C)C2 [Example 31, 5-(2,4-dihydroxyl-5-chloro-phenyl)-N-ethyl-4-(2-methyl-1,2,3,4-tetrahydroisoquinolin-6-yl)isoxazole-3-carboxamide] | 20 to 100 | > 100 |
| CCNC(=O)c1noc(-c2cc(C)c(O)cc2O)c1-c1ccc2c(c1)CCN(C)C2 [Example 32, 5-(2,4-dihydroxyl-5-methylphenyl)-N-ethyl-4-(2-methyl-1,2,3,4-tetrahydroisoquinolin-6-yl)isoxazole-3-carboxamide] | < 20 | > 100 |
| CCNC(=O)c1noc(-c2cc(CC(C)C)c(O)cc2O)c1-c1ccc2c(c1)CCN(C)C2 [Example 33, 5-(5-isobutyl-2,4-dihydroxyl-phenyl)-N-ethyl-4-(2-methyl-1,2,3,4-tetrahydroisoquinolin-6-yl)isoxazole-3-carboxamide] | 20 to 100 | > 100 |
| CCNC(=O)c1noc(-c2cc(CC)c(O)cc2O)c1-c1ccc2c(c1)CCN(C)C2 [Example 34, 5-(5-ethyl-2,4-dihydroxyl-phenyl)-N-ethyl-4-(2-methyl-1,2,3,4-tetrahydroisoquinolin-6-yl)isoxazole-3-carboxamide] | < 20 | 20 to 100 |
| CCNC(=O)c1noc(-c2cc(C3CC3)c(O)cc2O)c1-c1ccc2c(c1)CCN(C)C2 [Example 35, 5-(5-cyclopropyl-2,4-dihydroxyl-phenyl)-N-ethyl-4-(2-methyl-1,2,3,4-tetrahydroisoquinolin-6-yl)isoxazole-3-carboxamide] | < 20 | 20 to 100 |
| CNC(=O)c1noc(-c2cc(C(C)C)c(O)cc2O)c1-c1ccc2c(c1)CCN(C)C2 [Example 36, 5-(2,4-dihydroxyl-5-isopropylphenyl)-N-methyl-4-(2-methyl-1,2,3,4-tetrahydroisoquinolin-6-yl)isoxazole-3-carboxamide] | < 20 | < 20 |
| CCCNC(=O)c1noc(-c2cc(C(C)C)c(O)cc2O)c1-c1ccc2c(c1)CCN(C)C2 [Example 37, 5-(2,4-dihydroxyl-5-isopropylphenyl)-N-propyl-4-(2-methyl-1,2,3,4-tetrahydroisoquinolin-6-yl)isoxazole-3-carboxamide] | 20 to 100 | 20 to 100 |
| CC(C)NC(=O)c1noc(-c2cc(C(C)C)c(O)cc2O)c1-c1ccc2c(c1)CCN(C)C2 [Example 38, 5-(2,4-dihydroxyl-5-isopropylphenyl)-N-isopropyl-4-(2-methyl-1,2,3,4-tetrahydroisoquinolin-6-yl)isoxazole-3-carboxamide] | 20 to 100 | 20 to 100 |
| CC(C)c1cc(-c2onc(C(=O)NCC(F)(F)F)c2-c2ccc3c(c2)CCN(C)C3)c(O)cc1O [Example 39, 5-(2,4-dihydroxyl-5-isopropylphenyl)-N-(2,2,2-trifluoroethyl)-4-(2-methyl-1,2,3,4-tetrahydroisoquinolin-6-yl)isoxazole-3-carboxamide] | 20 to 100 | 20 to 100 |
| CC(C)c1cc(-c2onc(C(=O)NCCF)c2-c2ccc3c(c2)CCN(C)C3)c(O)cc1O [Example 40, 5-(2,4-dihydroxyl-5-isopropylphenyl)-N-(2-fluoroethyl)-4-(2-methyl-1,2,3,4-tetrahydroisoquinolin-6-yl)isoxazole-3-carboxamide] | < 20 | < 20 |
| COCCNC(=O)c1noc(-c2cc(C(C)C)c(O)cc2O)c1-c1ccc2c(c1)CCN(C)C2 [Example 41, 5-(2,4-dihydroxyl-5-isopropylphenyl)-N-(2-methoxyethyl)-4-(2-methyl-1,2,3,4-tetrahydroisoquinolin-6-yl)isoxazole-3-carboxamide] | < 20 | 20 to 100 |
| COCCCNC(=O)c1noc(-c2cc(C(C)C)c(O)cc2O)c1-c1ccc2c(c1)CCN(C)C2 [Example 42, 5-(2,4-dihydroxyl-5-isopropylphenyl)-N-(3-methoxypropyl)-4-(2-methyl-1,2,3,4-tetrahydroisoquinolin-6-yl)isoxazole-3-carboxamide] | 20 to 100 | 20 to 100 |
| CC(C)c1cc(-c2onc(C(=O)NCCN(C)C)c2-c2ccc3c(c2)CCN(C)C3)c(O)cc1O [Example 43, 5-(2,4-dihydroxyl-5-isopropylphenyl)-N-[2-(dimethylamino)ethyl]-4-(2-methyl-1,2,3,4-tetrahydroisoquinolin-6-yl)isoxazole-3-carboxamide] | 20 to 100 | > 100 |
| CCNC(=O)c1noc(-c2cc(C(C)C)c(O)cc2O)c1-c1ccc2c(c1)CCN(CCO)C2 [Example 44, 5-(2,4-dihydroxyl-5-isopropylphenyl)-N-ethyl-4-(2-(2-hydroxyethyl)-1,2,3,4-tetrahydroisoquinolin-6-yl)isoxazole-3-carboxamide] | < 20 | 20 to 100 |
| CCNC(=O)c1noc(-c2cc(C(C)C)c(O)cc2O)c1-c1ccc2c(c1)CCN(CCOC)C2 [Example 45, 5-(2,4-dihydroxyl-5-isopropylphenyl)-N-ethyl-4-(2-(2-methoxyethyl)-1,2,3,4-tetrahydroisoquinolin-6-yl)isoxazole-3-carboxamide] | < 20 | 20 to 100 |
| CCNC(=O)c1noc(-c2cc(C(C)C)c(O)cc2O)c1-c1ccc2c(c1)CCN(CCF)C2 [Example 46, 5-(2,4-dihydroxyl-5-isopropylphenyl)-N-ethyl-4-(2-(2-fluoroethyl)-1,2,3,4-tetrahydroisoquinolin-6-yl)isoxazole-3-carboxamide] | 20 to 100 | < 20 |
| CCNC(=O)c1noc(-c2cc(C(C)C)c(O)cc2O)c1-c1ccc2c(c1)CCN(CCCOC)C2 [Example 47, 5-(2,4-dihydroxyl-5-isopropylphenyl)-N-ethyl-4-(2-(3-methoxypropyl)-1,2,3,4-tetrahydroisoquinolin-6-yl)isoxazole-3-carboxamide] | 20 to 100 | 20 to 100 |
| CCNC(=O)c1noc(-c2cc(C(C)C)c(O)cc2O)c1-c1ccc2c(c1)CCN(CCS(=O)(=O)CC)C2 [Example 48, 5-(2,4-dihydroxyl-5-isopropylphenyl)-N-ethyl-4-(2-(2-ethylsulfonyl)ethyl-1,2,3,4-tetrahydroisoquinolin-6-yl)isoxazole-3-carboxamide] | 20 to 100 | 20 to 100 |
